The results in this text go back to patent publication US20210122757A1, “SPIROCYCLIC COMPOUNDS AS MODULATORS OF INDOLEAMINE 2,3-DIOXYGENASE” (PHENEX DISCOVERY VERWALTUNGS-GMBH, priority 2018, published 2021).

This experiment concerns the target T1, Indoleamine 2,3-dioxygenase (Homo sapiens, UniProt P14902).
T1 construct: endogenous in cells; host or cells: SKOV-3 (ATCC HTB-77), stimulated with 50 ng/ml interferon gamma
Kind of experiment: SKOV-3 Cellular Indoleamine 2,3-dioxygenase Assay. As to conditions: SKOV-3 cells, 50 ng/ml Interferon gamma, 100 μM L-Tryptophan, 24 hours, N-Formylkynurenin fluorescence detection; read-out: cell based activity (IC50). On the procedure:
SKOV-3 Cellular Indoleamine 2,3-dioxygenase Assay
SKOV-3 cells were obtained from the American Type Culture Collection (ATCC® HTB-77™) and maintained in McCoy's medium (Pan Biotech) supplemented with 10% fetal bovine serum and 1% Penicillin/Streptomycin. Cells were kept at 37° C. in a humidified incubator with 5% CO2. For assay preparation, cells were seeded at a density of 2*10^5/ml into black clear bottom 96 well plates in 100 μl medium/well supplemented with 50 ng/ml Interferon gamma (eBioscience, Thermo Fisher Scientific). After cells fully adhered to the plate, dilution series of compounds were added in medium containing additional L-Tryptophan to a final L-Tryptophan concentration of 100 μM. The cells were incubated for 24 hours. Detection of produced N-Formylkynurenin was performed by addition of 3-Methylpiperidine to a final concentration of 200 mM. The plates were sealed and heated to 65° C. for 20 minutes in a water bath. After cooling the fluorescence of each well was recorded with a Victor™X4 (PerkinElmer) plate reader at an emission wavelength of 535 nm and excitation at 405 nm (Tomek et al.; Anal Bioanal Chem (2013) 405:2515-2524, Tomek et al.; Biochim Biophys Acta. 2015 September; 1850(9):1772-80).

Where only a bound is given, the exact number is not on record here.

T1 sequence (P14902 whole entry): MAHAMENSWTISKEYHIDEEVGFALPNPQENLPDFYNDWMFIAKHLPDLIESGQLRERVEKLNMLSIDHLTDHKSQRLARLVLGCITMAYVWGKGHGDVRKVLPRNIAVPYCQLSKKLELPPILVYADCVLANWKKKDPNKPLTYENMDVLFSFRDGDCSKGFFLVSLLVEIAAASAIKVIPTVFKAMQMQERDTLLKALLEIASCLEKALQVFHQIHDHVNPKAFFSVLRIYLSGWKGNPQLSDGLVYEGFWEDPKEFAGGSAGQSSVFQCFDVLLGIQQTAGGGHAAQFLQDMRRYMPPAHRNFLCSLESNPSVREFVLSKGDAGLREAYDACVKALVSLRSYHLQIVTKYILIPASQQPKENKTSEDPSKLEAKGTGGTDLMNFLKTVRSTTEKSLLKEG

Broadly, the IC50 is the concentration that inhibits the measured activity by half. In the case of `CC(C(=O)Nc1ccc(Cl)cc1F)C1CCC2(CC1)COc1cc(C(F)(F)F)ccc12` (single isomer, unassigned) [Example 7c, N-(4-Chloro-2-fluorophenyl)-2-(6-(trifluoromethyl)-2H-spiro[benzofuran-3,1′-cyclohexan]-4′-yl)propanamide], the IC50 was less than 50 nM.
For `CC(C(=O)NC1Cc2ccc(F)cc21)C1CCC2(CC1)COc1cc(C(F)(F)F)ccc12` (single isomer, unassigned) [Example 12b], the IC50 was no less than 50 nM.
To `CCC(C(=O)Nc1ccc(Cl)cn1)C1CCC2(CC1)COc1cc(C(F)(F)F)ccc12` (single isomer, unassigned) [Example 10e, N-(5-chloropyridin-2-yl)-2-(6-(trifluoromethyl)-2H-spiro[benzofuran-3,1′-cyclohexan]-4′-yl)butanamide] belongs no less than 50 nM; to `C[C@H](C(=O)Nc1ccc(Cl)cc1)[C@H]1CC[C@]2(CC1)COc1cc(C(F)F)ccc12` [Example 13, (S)—N-(4-chlorophenyl)-2-((3R,4′s)-6-(difluoromethyl)-2H-spiro[benzofuran-3,1′-cyclohexan]-4′-yl)propanamide], less than 50 nM; to `CC(C(=O)Nc1ccc(Cl)cc1)C1CCC2(CC1)COc1ncc(C(F)(F)F)cc12` (single isomer, unassigned) [Example 4b, N-(4-chlorophenyl)-2-(5′-(trifluoromethyl)-2′H-spiro[cyclohexane-1,3′-furo[2,3-b]pyridin]-4-yl)propanamide], no less than 50 nM.
For the compound `CC(C(=O)NC1Cc2ccc(F)cc21)C1CCC2(CC1)COc1cc(C(F)(F)F)ccc12` (single isomer, unassigned) [Example 12a], the concentration for half-maximal inhibition (IC50) was no less than 50 nM.
